A short description of data set [1]: Average particle diameter by dry particle size distribution measurement (AEROSIZER mach 2). In kind it is physicochemical. Particulars: dry particle size distribution measurement after grinding. An excerpt: The average particle diameter of the finely ground powder of MX-68 in the present invention can be measured by using, for example, a dry particle size distribution measurement apparatus (AEROSIZER mach 2, manufactured by AMHERST PROCESS INSTRUMENTS, INC) as will be described in Example 1 hereinafter. The finely ground powder of MX-68 according to the present invention has an average particle diameter of from 5 to 25 μm. When the average particle diameter is less than 5 μm, the finely ground powder is liable to be charged with static electricity and thus there arises a high possibility of dusting and adhesion. When the average particle diameter exceeds 25 μm, on the other hand, it is feared that the solubility and/or content uniformity of MX-68 are adversely affected. It is preferable that the average particle diameter ranges from 8 to 15 μm, still preferably from 9 to 11 μm.
A crystalline bulk powder of MX-68 obtained by the method described in Japanese Laid-Open Patent Publication No. 6-239863(A)) (manufactured by Chugai Pharmaceutical Co., Ltd.) was manually ground in an agate mortar. Separately, the same bulk powder was ground with a centrifugal grinder (ZM-1, manufactured by Nippon Seiki Seisakusho) by using a screen (pore size: 0.2 mm) at 20,000 rpm. Separately, the same bulk powder was ground with a micro-labo jet mill (A-O Jet Mill, manufactured by Seishin Kigyo). The particle diameter of each finely ground powder of MX-68 thus obtained was measured by using a dry particle size distribution measurement apparatus (AEROSIZER mach 2, manufactured by AMHERST PROCESS INSTRUMENTS, INC) and the average particle diameter was determined. As a result, the average particle diameter could be controlled to 9 to 11 μm by each grinding method (Table 1).

The nature of data set [2]: Thermal analysis: differential scanning calorimetry, endotherm. In kind it is physicochemical. As to conditions: DSC; for endotherm compared with the unground bulk powder (in words): before and after the grinding treatment; for Endotherm: temperature rise 5° C./min. How it is done:
The finely ground powder of MX-68 sustaining the crystallinity according to the present invention means a finely ground powder of MX-68 which has, both before and after the grinding treatment, parts showing polarization when observed under a polarization microscope, and has an endotherm of from 25 to 50 mJ/mg, preferably from […] at an endothermic peak appearing, for example, at 185 to 195° C. in the differential scanning calorimetry as will be described Example 2.
A crystalline bulk powder of MX-68 obtained by the method described in Japanese Laid-Open Patent Publication No. 6-239863(A)) (manufactured by Chugai Pharmaceutical Co., Ltd.) and the finely ground powders of MX-68 obtained by the grinding methods described in Example 1 were thermally analyzed to thereby determine the differential scanning calories (DSC, temperature rise: 5° C./min). Then the endotherm (caused by the endothermic reaction occurring in association with the conversion of crystalline particles in the crystalline bulk powder into the amorphous state) was calculated.

Data set [3] can be described thus: Storage stability (60° C., 2 weeks). In kind it is physicochemical. As to conditions: for storage stability after the grinding treatment (in words): 60° C.; for Residual ratio: storage 60° C. How it is done: A comparison was made on the storage stability (60° C., 2 weeks) of the crystalline bulk powder of MX-68 obtained by the method described in Japanese Laid-Open Patent Publication No. 6-239863(A)) (manufactured by Chugai Pharmaceutical Co., Ltd.), the mortar-ground bulk powder and the centrifugal-ground bulk powder obtained in Example 1.

Data set [4] can be described thus: Dissolution test, method 2 (paddle method), Japanese Pharmacopoeia. The format is physicochemical. Particulars: compared with the amorphous bulk powder. An excerpt: Tablets of the following formula were produced by using the crystalline bulk powder of MX-68 obtained by the method described in Japanese Laid-Open Patent Publication No. 6-239863(A)) (manufactured by Chugai Pharmaceutical Co., Ltd.), an amorphous bulk powder and the centrifugal.-ground bulk powder obtained in Example 1. More particularly, MX-68, lactose, crystalline cellulose and croscarmellose sodium were dry-mixed. After adding water, the mixture was kneaded and granulated. Then the granulated matter was dried at 50° C., mixed with magnesium stearate, and press molded to give tablets of 6 mm in diameter. In accordance with the method 2 (paddle method) of the dissolution test as specified in Japanese Pharmacopoeia, these tablets were subjected to the dissolution test using 500 ml of JP official solution 1 at 37° C.

A short description of data set [5]: Pharmacokinetics after oral administration to dogs, MX-68 concentration in the blood. Particulars: 1 mg/kg. The format is in vivo.

For the compound `Nc1nc(N)c2nc(CN3CCSc4cc(C(=O)N[C@@H](CCCC(=O)O)C(=O)O)ccc43)cnc2n1` [Centrifugal-ground bulk powder, N-(1-((2,4-diamino-6-pteridinyl)methyl)-3,4-dihydro-2H-1,4-benzothiazine-7-carbonyl)L-α-aminoadipic acid], the Average particle diameter in data set [1] amounted to 11.4 μm. Besides, in data set [2], the “endotherm compared with the unground bulk powder (in words)” value was “no change in the endotherm” and the Endotherm was found to be 32.8 mJ/mg. Besides, in data set [3], the “storage stability after the grinding treatment (in words)” value is “sustained stability comparable to the unground bulk powder” and the Residual ratio was determined as 96.3%.

`Nc1nc(N)c2nc(CN3CCSc4cc(C(=O)N[C@@H](CCCC(=O)O)C(=O)O)ccc43)cnc2n1` [Jet mill-ground bulk powder, N-(1-((2,4-diamino-6-pteridinyl)methyl)-3,4-dihydro-2H-1,4-benzothiazine-7-carbonyl)L-α-aminoadipic acid] gave an Average particle diameter in data set [1] of 10.7 μm. Also, in data set [2], the “endotherm compared with the unground bulk powder (in words)” value is recorded as “no change in the endotherm” and the Endotherm is 33.2 mJ/mg.

In the case of `Nc1nc(N)c2nc(CN3CCSc4cc(C(=O)N[C@@H](CCCC(=O)O)C(=O)O)ccc43)cnc2n1` [Mortar-ground bulk powder], in data set [1], the Average particle diameter is 9.3 μm. Besides, in data set [2], the “endotherm compared with the unground bulk powder (in words)” value is reported as “a decrease in the endotherm” and the Endotherm stood at 22.3 mJ/mg. For the same compound, the “storage stability after the grinding treatment (in words)” value in data set [3] is “a decrease in stability”. Moreover, the Residual ratio in data set [3] (listed as Motor-ground bulk powder) came to 90.9%.

Regarding `Nc1nc(N)c2nc(CN3CCSc4cc(C(=O)N[C@@H](CCCC(=O)O)C(=O)O)ccc43)cnc2n1` [Unground bulk powder], the Endotherm in data set [2] stood at 33.5 mJ/mg. In addition, the Residual ratio in data set [3] stood at 95.3%. The “solution speed (in words)” value in data set [4] is “lower solution speed”. Further, the “bioavailability (in words)” value in data set [5] (compared with the amorphous bulk powder) is recorded as “lower bioavailability”.

With `Nc1nc(N)c2nc(CN3CCSc4cc(C(=O)N[C@@H](CCCC(=O)O)C(=O)O)ccc43)cnc2n1` [amorphous bulk MX-68 powder, N-(1-((2,4-diamino-6-pteridinyl)methyl)-3,4-dihydro-2H-1,4-benzothiazine-7-carbonyl)L-α-aminoadipic acid], in data set [5] (compared with the unground bulk powder), the “absorbability (in words)” value is “higher absorbability”.

The values above are taken from US6383520B1, “Fine powder of L-α-aminoadipic acid derivative, oral solid preparations containing the same, and method for treatment of bulk powders” (Chugai Seiyaku Kabushiki Kaisha, priority 1998, dated 2002).
